Test results reported in US20250204515A1, “Heparanase Inhibition for Graft Protection” (University of Pittsburgh - Of the Commonwealth System of …, priority 2022, published 2025).
Entries after “also recorded” stand apart in the source; their conditions may differ.

Key:
[1] = tested on: endothelial glycocalyx (eGC); assay: Gross inspection and TEM glycocalyx imaging of rat lungs after 1 h warm ischemia; format: in vivo; details: for gross visual appearance of excised lungs: heparin 300 IU or NAH 300 μg i.v. before 1 h ischemia; for eGC ultrastructure in lung vasculature (TEM): heparin 300 IU or NAH 300 μg i.v. before 1 h warm ischemia, vs control
Method: (§1) Models of lungs with damaged or preserved eGC and rat orthotopic left lung transplantation. Rats were sedated with 4% isoflurane via inhalation for tracheostomy and then placed on a ventilator. They received 5% isoflurane with 100% O2 via inhalation through the ventilator for 15 min to induce a deep state of anesthesia that causes arrest of spontaneous breathing. The rats were disconnected from the ventilator 5 min after intravenous administration of heparin (300 IU), a heparin derivative without anti-coagulant properties (300 μg; N-acetyl heparin (NAH) (Millipore Sigma, Burlington, MA)), or saline (300 μl, control) through the jugular vein. Cardiac activity and blood oxygen saturation were monitored after disconnection from ventilator until cardiac arrest. One hour after induction of ischemia, a median thoracotomy was performed, and blood was flushed from the lungs with cold, low potassium dextran solution (PERFADEX; XVIVO Perfusion AB) through the pulmonary artery. Then, the heart-lung bloc was isolated and stored in cold PERFADEX for 6 h before transplantation.
TEM for glycocalyx imaging. To prepare the tissue for transmission electron microscopy imaging, blood was flushed from rat lungs with PBS via the pulmonary artery after 1 h of warm ischemia, then the lungs were perfused with a solution containing 2% glutaraldehyde, 2% sucrose, 0.1 M sodium cacodylate buffer (pH 7.3, Sigma), and 2% lanthanum nitrate (Sigma). Excised lung tissues were incubated with the same solution for 2 h at 4° C. for fixation. The fixed tissues were immersed in a 2% sucrose, 0.1 M sodium cacodylate buffer (pH 7.3) solution with 2% lanthanum nitrate overnight at 4° C. to stain the glycocalyx, then washed twice with an alkaline solution (0.03 mol/l NaOH) containing 2% sucrose. Following fixation and glycocalyx staining with lanthanum nitrate, the specimens were rinsed in PBS, post-fixed in 1% osmium tetroxide (Electron Microscopy Sciences, Hatfield, PA), rinsed in PBS a second time, dehydrated through a graded series of ethanol and propylene oxide (Electron Microscopy Sciences), and embedded using a Poly/Bed 812 (Luft formulations) Embedding Kit (Polysciences, Warrington, PA). Sections were cut on a Leica-Reichart Ultracut ultra-microtome (Leica Microsystems, Buffalo Grove, IL). Semi-thin (300 nm) sections were stained with 0.5% toluidine blue in 1% sodium borate (toluidine blue O and sodium borate, Fisher Scientific, Pittsburgh, PA) and examined under the light microscope. Ultrathin sections (65 nm) were stained with uranyl acetate and Reynold's lead citrate and examined on a JEOL 1400 transmission electron microscope (JEOL Peabody, MA) with a side-mount AMT 2 k digital camera (Advanced Microscopy Techniques, Danvers, MA).

[2] = tested on: IL-6, IL-1β, MMP-9 mRNA; assay: Real-time RT-PCR in lung grafts 2 h after transplantation; format: in vivo, rat; details: for IL-1β mRNA expression / IL-6 mRNA expression: graft 2 h after reperfusion, vs control lung grafts; for MMP-9 mRNA expression: graft 2 h after transplantation, vs control
Method: Real-time RT PCR. Lung tissues were collected after EVLP or 2 h after transplantation. Total RNA was extracted from the graft using TRIzol reagent (Life Technologies, Inc. Grand Island, NY) according to the manufacturer's instructions and purified by ethanol precipitation. RNA content was measured using 260/280 nm UV spectrophotometry.

[3] = target: T1, heparanase (Rattus norvegicus, UniProt Q71RP1); assay: Heparanase activity assay in rat lung tissue after 1 h warm ischemia; format: in vivo; details: rat donors given heparin 300 IU or NAH 300 μg i.v. 5 min before 1 h warm ischemia; vs untreated control
T1 construct: isolated lung tissue lysate was applied to biotinylated heparan sulfate-coated wells; from tissue; host or cells: rat (Lewis) lung tissue lysate
T1 sequence (Q71RP1 29-536): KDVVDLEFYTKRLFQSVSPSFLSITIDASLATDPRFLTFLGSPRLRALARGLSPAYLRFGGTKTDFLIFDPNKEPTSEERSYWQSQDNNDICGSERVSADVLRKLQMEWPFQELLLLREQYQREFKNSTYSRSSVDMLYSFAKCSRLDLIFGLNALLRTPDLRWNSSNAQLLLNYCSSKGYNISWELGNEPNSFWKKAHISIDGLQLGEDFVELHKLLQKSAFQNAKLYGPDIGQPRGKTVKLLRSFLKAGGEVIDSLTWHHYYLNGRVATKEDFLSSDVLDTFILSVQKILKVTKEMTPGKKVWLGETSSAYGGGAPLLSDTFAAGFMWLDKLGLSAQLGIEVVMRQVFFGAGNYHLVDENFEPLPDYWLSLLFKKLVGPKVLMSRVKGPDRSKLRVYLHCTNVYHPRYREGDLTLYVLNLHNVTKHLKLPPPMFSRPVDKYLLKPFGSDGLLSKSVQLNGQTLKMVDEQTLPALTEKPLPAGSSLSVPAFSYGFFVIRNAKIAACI
Method: as §1, with “Then, the heart-lung bloc was isolated and stored in cold PERFADEX for 6 h before transplantation.” left out
Heparanase activity assay. Heparanase activity was measured using a heparanase assay kit (AMS Bio-technology (Europe) Ltd., Abingdon, UK) to quantitate heparan sulfate degradation according to the manufacturer's instructions. […] After incubation and washing, the remaining heparan sulfate was detected using a biotin-streptavidin-HRP system.

[4] = tested on: rat lung grafts; assay: Rat orthotopic left lung transplantation of donor-pretreated lungs: graft function, edema, histology, cell infiltration; format: in vivo; details: for T-cell (CD3+) infiltration / macrophage (CD68+) infiltration / polymorphonuclear neutrophil (PMN) infiltration: 2 h after reperfusion; for T-cell (CD3+) infiltration / macrophage (CD68+) infiltration / wet-to-dry (W/D) ratio / polymorphonuclear neutrophil (PMN) infiltration: vs control; for congestion, swollen alveolar walls, secretions in the airways (H&E) / wet-to-dry (W/D) ratio / PaO2/FiO2 (P/F) ratio: 2 h after transplantation, donor pre-treatment; for PaO2/FiO2 (P/F) ratio: vs control lung grafts; for polymorphonuclear neutrophil (PMN) infiltration: naphthol staining
Excerpt: Study design. To investigate the stability of eGC in lung grafts and its potential influence on graft function and quality after reperfusion, we established rat models with damaged or preserved lung eGC and performed orthotopic, single, left-lung transplantation or EVLP using the lungs from these rats. Animals were randomly assigned 4 different groups; (1) native lungs (normal control), (2) Control: lungs with eGC damage, (3) Heparin: lungs with eGC preserved by heparin, and (4) NAH: lungs with eGC preserved by NAH. Shedding of the eGC was induced in vivo by donor systemic ischemia. After 1 h of ischemia in vivo, lungs were procured in a standardized fashion for lung transplantation then either directly transplanted or subjected to EVLP and assessed biologically. Native lungs were not subjected to any insult.
as §1
Orthotopic single-lung transplantation of the left lung was performed using the cuff method. Two hours after reperfusion, the naive lung was clamped, 100% 02 was administered for 5 min through a ventilator, and the recipient's blood was sampled from the graft pulmonary vein for blood gas analysis.
Wet-to-dry (W/D) weight ratio. The weight of the lung tissues was measured immediately after collection (wet weight). The lung tissue was then placed into a 60° C. oven to dry for 72 h. Tissues were weighed to deter-mine the dry weight, and the wet-to-dry ratio was calculated.
Tissue staining and histopathological analysis. Formalin-fixed, paraffin-embedded lung tissues collected 2 h after transplantation were sectioned to 4-μm thickness and stained with hematoxylin and eosin. The sections were also stained for immunofluorescent imaging using primary antibodies for CD3 (Invitrogen), CD68 (Invitrogen), or syndecan-1 (Santa Cruz), and Hoechst 33342 dye for nuclear staining. Primary antibody was detected by secondarily Cy5-conjugated goat anti-rabbit IgG (Invitrogen) and Cy3-conjugated goat anti-mouse IgG (Millipore Sigma).
Polymorphonuclear neutrophils (PMNs) were stained using a naphthol AS-D chloroacetate esterase staining kit (Millipore Sigma) and identified by nuclear morphology staining in bright red. Stained slides were scanned with a whole-slide image scanner (Axio Scan.Z1; Carl Zeiss) and analyzed with digital image processing software (ZEN lite blue edition; Carl Zeiss). Stained cells were counted by two investigators with the identity of the samples masked.

| heparanase activity in lung tissue [3] | Substance | gross visual appearance of excised lungs [1] | eGC ultrastructure in lung vasculature (TEM) [1] | IL-1β mRNA expression [2] | IL-6 mRNA expression [2] | MMP-9 mRNA expression [2] | T-cell (CD3+) infiltration [4] | macrophage (CD68+) infiltration [4] | congestion, swollen alveolar walls, secretions in the airways (H&E) [4] | wet-to-dry (W/D) ratio [4] | PaO2/FiO2 (P/F) ratio [4] | polymorphonuclear neutrophil (PMN) infiltration [4] |
| --- | --- | --- | --- | --- | --- | --- | --- | --- | --- | --- | --- | --- |
| inhibited | N-acetyl heparin [NAH] | no significant changes in appearance | intact and adherent to the cell surface | significantly lower | significantly lower | significantly lower | significantly reduced | significantly reduced | not observed | lower | significantly higher | significantly reduced |
| decreased; also recorded: inhibited | heparin | no significant changes in appearance | preserved; also recorded: intact and adherent to the cell surface | significantly lower | significantly lower | significantly lower | significantly reduced | significantly reduced | not observed | lower | significantly higher | significantly reduced |
